In patent publication US4249005A, “Alkoxymethyl and benzyloxymethyl phenobarbital compounds” (priority 1969, dated 1981):

What was measured:
[1] = Anticonvulsant effectiveness against Metrazol; assay type: in vivo, adult albino male mice (Charles River strain); details: oral, mice; for ED50: Mus musculus, Metrazol 106.25 mg/kg subcutaneously, limits in parentheses
Protocol: (§1) All tests, with the exceptions noted, were conducted on adult albino male mice (Charles River strain); the dosage consisted of the active agent suspended in 10% aqueous acacia and was administered orally unless otherwise indicated.
(§2) Anticonvulsant effectiveness was determined against a convulsive dose of Metrazol (106.25 mg/kg) injected subcutaneously; the criterior for effectiveness was failure to show clonic convulsive seizures. Anticonvulsant activity was determined against a lethal dose of strychnine sulfate (1.5 mg/kg) injected subcutaneously; the criterion was failure to die, even though seizures appeared.

Acute oral toxicity = test: Acute oral toxicity; set-up: species or system adult albino male mice (Charles River strain); details: mouse, in vivo
Protocol: as §1
(§3) Acute oral toxicity and acute intraperitoneal toxicity were determined in the conventional manner. The results were expressed as LD50, the dose required to produce death in 50% of the animals treated, determined graphically, with the 95% limits shown in parentheses.

[2] = Neurological deficit (Swinyard et al. plus rotorod); set-up: species or system adult albino male mice (Charles River strain); details: mouse, in vivo; oral, mice; 95% limits in parentheses
Protocol: as §1
The dosage required to produce a neurological deficit was determined by the method of Swinyard et al., J. Pharmacol. Exptl. Therap. 106, 319 (1952) except that one additional test was employed: the ability of the animal to remain for at least one minute on a "rotorod", a horizontal rod rotated at 6 r.p.m. The results were expressed as TD50, the dose required to produce the effect, determined graphically, with 95% limits.

[3] = Acute intraperitoneal toxicity; set-up: species or system adult albino male mice (Charles River strain); details: mouse, in vivo, ip, mice, 95% limits in parentheses
Protocol: as §1, §3

[4] = Anticonvulsant effectiveness against maximal electroshock; assay type: in vivo, adult albino male mice (Charles River strain); details: for ED50: Mus musculus, at time of peak effect, limits in parentheses; for ED50 / Time of peak activity: oral, mice
Protocol: as §1
(§4) Anticonvulsant effectiveness of each agent against maximal electroshock was determined at the time of peak effect. The time of peak anticonvulsant activity was determined by administering dosages of various sizes to a group of animals and administering a maximal electroshock to the animals at intervals thereafter by supply 60 ma. current through a corneal electrode for 0.2 second. […] The time of peak effect thus determined was used for all subsequent tests of anticonvulsant activity on the same active agent.
The duration of the anticonvulsant effect against maximal electroshock was compared with that of phenobarbital sodium at a dosage level of 0.1 millimole/kg of each.

[5] = Anticonvulsant activity against maximal electroshock in the rat; assay type: in vivo; details: rat (Sprague Dawley Strain); limits in parentheses
Protocol: as §4

[6] = reported in Doran, Medicinal Chemistry, 1959; cited from earlier work
[7] = Anticonvulsant activity against strychnine; assay type: in vivo, adult albino male mice (Charles River strain); details: Mus musculus, po, read-out: Strychnine, ED50
Protocol: as §1, §2

[8] = cited from earlier work
[9] = Hypnotic activity (loss of the righting reflex); assay type: in vivo, adult albino male mice (Charles River strain); details: any dosage less than a lethal dose for compounds of the invention
Protocol: as §1

[10] = oral, mice, 95% limits in parentheses, read-out: LD50 (oral)
[11] = 0.1 millimole/kg, maximal electroshock

In the case of `CCC1(c2ccccc2)C(=O)N(COC)C(=O)N(COC)C1=O` [Example 1, 1,3-dimethoxymethyl-5-ethyl-5-phenyl barbituric acid], the ED50 [1] is reported as 47 mg/kg, the LD50 (Acute oral toxicity; [10]) is reported as 470 mg/kg and the TD50 [2] is reported as 47 mg/kg. The LD50 [3] was 490 mg/kg, the “duration of protection against maximal electroshock at about the same level” value ([4]; 0.1 millimole/kg) was “more than eight” and the ED50 [4] was 13.5 mg/kg. The “Time of peak activity” value ([4]; maximal electroshock) was 2 h, the “change in the ED50 to protect against maximal electroshock on repeated dosage” value ([4]; repeated daily dosage of the same animals for four days) was “no significant change” and the ED50 [5] was 6.6 mg/kg. For the same molecule, the hypnotic effect [6] was “without effect” and the ED50 [7] was 200 mg/kg.

In the case of `COCN1C(=O)NC(c2ccccc2)(c2ccccc2)C1=O` [Example 2, 3-methoxymethyl-5,5-diphenylhydantoin], the LD50 (Acute oral toxicity; route not stated with the value (oral unless otherwise indicated), read-out: LD50) is reported as about 500 mg/kg, the ED50 [4] is reported as under 25 mg/kg and the “duration of anticonvulsant activity (maximal electroshock)” value ([4]; after ingestion) is reported as “more than 2 hours”. For the same molecule, the “onset of anticonvulsant activity (maximal electroshock)” value ([4]; after ingestion) was “less than 0.5 hour”.

In the case of `CCCCOCN1C(=O)N(COCCCC)C(=O)C(CC)(c2ccccc2)C1=O` [Example 4, 1,3-di-(n)-butoxymethyl-5-ethyl-5-phenyl barbituric acid], the LD50 (Acute oral toxicity; [10]) is reported as over 500 mg/kg and the ED50 [4] is reported as under 100 mg/kg.

In the case of `CCOCN1C(=O)N(COCC)C(=O)C(CC)(c2ccccc2)C1=O` [Example 5, 1,3-diethoxymethyl-5-ethyl-5-phenyl barbituric acid], the ED50 [4] is reported as under 25 mg/kg and the “Time of peak activity” value ([4]; maximal electroshock) is reported as 11/2.

Molecule `CCCCOCN1C(=O)NC(c2ccccc2)(c2ccccc2)C1=O` [Example 6, 3-(n)-butoxymethyl-5,5-diphenylhydantoin] has an LD50 (Acute oral toxicity; [10]) of over 500 mg/kg and an ED50 [4] of under 25 mg/kg.

In the case of `CCCCCCCCCCCCOCN1C(=O)N(COCCCCCCCCCCCC)C(=O)C(CC)(c2ccccc2)C1=O` [Example 8, 1,3-dilauryloxymethyl-5-ethyl-5-phenyl barbituric acid], the LD50 (Acute oral toxicity; [10]) is reported as over 500 mg/kg, the ED50 [4] is reported as about 50 mg/kg and the “Time of peak activity” value ([4]; maximal electroshock) is reported as 2 h.

For `CCC1(CC)C(=O)N(COC)C(=O)N(COC)C1=O` [Example 9, 1,3-dimethoxymethyl-5,5-diethyl-barbituric acid], the ED50 [1] was 7 mg/kg, the “Time of peak activity” value ([1]; reported with Metrazol result, test not stated) was 1 h and the LD50 (Acute oral toxicity; [10]) was over 1000 mg/kg. It also gave an LD50 [3] of about 1000 mg/kg.

`CCCCCCCCCCCCOCN1C(=O)N(COCCCCCCCCCCCC)C(=O)C(CC)(CC)C1=O` [Example 10, 1,3-di-n-dodecyloxymethyl-5,5-diethyl barbituric acid] gave an ED50 [1] of about 200 mg/kg and an LD50 (Acute oral toxicity; [10]) of over 1000 mg/kg.

Molecule `C=CCC1(C(C)CCC)C(=O)N(COC)C(=O)N(COC)C1=O` (stereo not drawn) [Example 11, 1,3-dimethoxymethyl-5-allyl-5-(2-pentyl) barbituric acid] has an ED50 [1] of about 100 mg/kg and an LD50 (Acute oral toxicity; [10]) of over 500 mg/kg.

`C=CCC1(C(C)CCC)C(=O)N(COCc2ccccc2)C(=O)N(COCc2ccccc2)C1=O` (stereo not drawn) [Example 12, 1,3-dibenzyloxymethyl-5-allyl-5-(2-pentyl) barbituric acid] gave an ED50 [1] of about 200 mg/kg and an LD50 (Acute oral toxicity; [10]) of over 1000 mg/kg.

For `CCC1(c2ccccc2)C(=O)NC(=O)NC1=O` [Phenobarbital, phenobarbital], the hypnotic activity ([8]; known property) is listed as “exhibits hypnotic activity as well as anticonvulsant activity”, the anticonvulsant usefulness ([8]; long known, treatment of epilepsy) is listed as “useful as anticonvulsant agents in warm-blooded animals” and the “Hypnotic activity (loss of the righting reflex, onset of sleep)” value [9] is listed as “did exhibit hypnotic activity”.

In the case of `O=C1NC(=O)C(c2ccccc2)(c2ccccc2)N1` [diphenylhydantoin], the hypnotic activity ([8]; known property) is listed as “not hypnotic” and the undesirable side effects ([8]; known property) is listed as “hypertrophic gingivitis, megaloblastic anemia, toxic psychoses, and hirsutism”.

For `CCC1(c2ccccc2)C(=O)NC(=O)NC1=O` [phenobarbital sodium, reference compound], the “time at which protection began to decrease” value [4, 11] was “four”, the “time at which protection was nearly gone” value [4, 11] was “eight” and the “onset of protection against maximal electroshock” value ([4]; 0.1 millimole/kg, comparator) was “less than 0.5 hour”.
